Laboratory results as given in patent US20250312352A1, “GLP-1R MODULATING COMPOUNDS” (Gilead Sciences, Inc., priority 2021, published 2025).

What follows are molecules tested against T1, GLP-1R (Homo sapiens, UniProt P43220) (assay: GLP-1R activation cAMP assay (Assay 1 or Assay 2)). Details: cAMP increase in CHO cells stably expressing GLP-1R; compounds run on one of the two cAMP assays.
T1 construct: host or cells: CHO cells
Format: cell-based
How it was run: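 EC50 values come from a sigmoidal fit of HTRF-detected cAMP rise versus log agonist concentration. GLP-1R-expressing CHO cells, equilibrated 1 h at 37 °C in HBSS with HEPES and BSA, received a 10-point compound dose series for 30 min before detection.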

T1 sequence (P43220 24-463): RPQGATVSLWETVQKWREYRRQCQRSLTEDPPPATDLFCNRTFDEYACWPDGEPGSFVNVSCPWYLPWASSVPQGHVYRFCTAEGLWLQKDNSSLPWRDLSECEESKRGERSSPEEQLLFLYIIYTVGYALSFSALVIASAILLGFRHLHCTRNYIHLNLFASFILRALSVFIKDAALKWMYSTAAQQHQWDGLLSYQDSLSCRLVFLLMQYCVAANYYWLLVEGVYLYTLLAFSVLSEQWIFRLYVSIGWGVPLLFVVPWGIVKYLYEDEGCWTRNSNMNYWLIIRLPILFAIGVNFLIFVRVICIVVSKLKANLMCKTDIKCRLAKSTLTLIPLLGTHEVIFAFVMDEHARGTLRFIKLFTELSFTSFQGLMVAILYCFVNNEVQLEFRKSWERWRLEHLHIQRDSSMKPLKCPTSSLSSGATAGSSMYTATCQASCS

| SMILES | EC50 [nM] |
| --- | --- |
| O=C(O)c1ccc2nc(Cc3cc(F)c(-c4cccc(OCc5nnc(C6CC6)s5)n4)cc3F)n(C[C@@H]3CCO3)c2c1 [Example 307, (S)-2-(4-(6-((5-cyclopropyl-1,3,4-thiadiazol-2-yl)methoxy)pyridin-2-yl)-2,5-difluorobenzyl)-1-(oxetan-2-ylmethyl)-1H-benzo[d]imidazole-6-carboxylic acid] | 0.59 |
| Cc1nnc(COc2cccc(-c3cc(F)c(Cc4nc5ccc(C(=O)O)cc5n4C[C@@H]4CCO4)cc3F)n2)s1 [Example 308, (S)-2-(2,5-difluoro-4-(6-((5-methyl-1,3,4-thiadiazol-2-yl)methoxy)pyridin-2-yl)benzyl)-1-(oxetan-2-ylmethyl)-1H-benzo[d]imidazole-6-carboxylic acid] | 0.683 |
| CC(F)(F)c1cnc(COc2nc(-c3cc(F)c(Cc4nc5c(F)cc(C(=O)O)cc5n4C[C@@H]4CCO4)cc3F)ccc2F)s1 [Example 309, (S)-2-(4-(6-((5-(1,1-difluoroethyl)thiazol-2-yl)methoxy)-5-fluoropyridin-2-yl)-2,5-difluorobenzyl)-4-fluoro-1-(oxetan-2-ylmethyl)-1H-benzo[d]imidazole-6-carboxylic acid] | 0.084 |
| O=C(O)c1cc(F)c2nc(Cc3cc(F)c(-c4ccc(F)c(OCc5ncc(Cl)s5)n4)cc3F)n(C[C@@H]3CCO3)c2c1 [Example 311, (S)-2-(4-(6-((5-chlorothiazol-2-yl)methoxy)-5-fluoropyridin-2-yl)-2,5-difluorobenzyl)-4-fluoro-1-(oxetan-2-ylmethyl)-1H-benzo[d]imidazole-6-carboxylic acid] | 0.03 |
| CCOc1nnc(COc2cccc(-c3cc(F)c(Cc4nc5c(F)cc(C(=O)O)cc5n4C[C@@H]4CCO4)cc3F)n2)s1 [Example 312, (S)-2-(4-(6-((5-ethoxy-1,3,4-thiadiazol-2-yl)methoxy)pyridin-2-yl)-2,5-difluorobenzyl)-4-fluoro-1-(oxetan-2-ylmethyl)-1H-benzo[d]imidazole-6-carboxylic acid] | 0.044 |
| O=C(O)c1cc(F)c2nc(Cc3cc(F)c(-c4ccc(F)c(OCc5ncc(C(F)(F)F)s5)n4)cc3F)n(C[C@@H]3CCO3)c2c1 [Example 313, (S)-2-(2,5-difluoro-4-(5-fluoro-6-((5-(trifluoromethyl)thiazol-2-yl)methoxy)pyridin-2-yl)benzyl)-4-fluoro-1-(oxetan-2-ylmethyl)-1H-benzo[d]imidazole-6-carboxylic acid] | 0.032 |
| O=C(O)c1cc(F)c2nc(Cc3cc(F)c(-c4cccc(OCc5ccc(Cl)s5)n4)cc3F)n(C[C@@H]3CCO3)c2c1 [Example 314, (S)-2-(4-(6-((5-chlorothiophen-2-yl)methoxy)pyridin-2-yl)-2,5-difluorobenzyl)-4-fluoro-1-(oxetan-2-ylmethyl)-1H-benzo[d]imidazole-6-carboxylic acid] | 0.094 |
| COCCn1c(Cc2cc(F)c(-c3cccc(OCc4nnc(OC)s4)n3)cc2Cl)nc2c(F)cc(C(=O)O)cc21 [Example 315, 2-(2-chloro-5-fluoro-4-(6-((5-methoxy-1,3,4-thiadiazol-2-yl)methoxy)pyridin-2-yl)benzyl)-4-fluoro-1-(2-methoxyethyl)-1H-benzo[d]imidazole-6-carboxylic acid] | 0.764 |
| N#Cc1cccc(C#Cc2cnc(COc3cccc(-c4cc(F)c(Cc5nc6ccc(C(=O)O)cc6n5C[C@@H]5CCO5)cc4F)n3)s2)c1 [Example 316, (S)-2-(4-(6-((5-((3-cyanophenyl)ethynyl)thiazol-2-yl)methoxy)pyridin-2-yl)-2,5-difluorobenzyl)-1-(oxetan-2-ylmethyl)-1H-benzo[d]imidazole-6-carboxylic acid] | 0.129 |
| O=C(O)c1ccc2nc(Cc3cc(F)c(-c4cccc(OCc5ccc(Cl)s5)n4)cc3F)n(C[C@@H]3CCO3)c2c1 [Example 317, (S)-2-(4-(6-((5-chlorothiophen-2-yl)methoxy)pyridin-2-yl)-2,5-difluorobenzyl)-1-(oxetan-2-ylmethyl)-1H-benzo[d]imidazole-6-carboxylic acid] | 0.125 |
| CC(F)(F)c1cnc(COc2cccc(-c3cc(F)c(Cc4nc5c(F)cc(C(=O)O)cc5n4C[C@@H]4CCO4)cc3F)n2)s1 [Example 318, (S)-2-(4-(6-((5-(1,1-difluoroethyl)thiazol-2-yl)methoxy)pyridin-2-yl)-2,5-difluorobenzyl)-4-fluoro-1-(oxetan-2-ylmethyl)-1H-benzo[d]imidazole-6-carboxylic acid] | 0.028 |
| O=C(O)c1cc(F)c2nc(Cc3cc(F)c(-c4cccc(OCc5ncc(Cl)s5)n4)cc3F)n(C[C@@H]3CCO3)c2c1 [Example 319, (S)-2-(4-(6-((5-chlorothiazol-2-yl)methoxy)pyridin-2-yl)-2,5-difluorobenzyl)-4-fluoro-1-(oxetan-2-ylmethyl)-1H-benzo[d]imidazole-6-carboxylic acid] | 0.034 |
| CC(C)(C)C#Cc1cnc(COc2cccc(-c3cc(F)c(Cc4nc5ccc(C(=O)O)cc5n4C[C@@H]4CCO4)cc3F)n2)s1 [Example 320, (S)-2-(4-(6-((5-(3,3-dimethylbut-1-yn-1-yl)thiazol-2-yl)methoxy)pyridin-2-yl)-2,5-difluorobenzyl)-1-(oxetan-2-ylmethyl)-1H-benzo[d]imidazole-6-carboxylic acid] | 0.537 |
| CC1(C#Cc2nnc(COc3cccc(-c4cc(F)c(Cc5nc6ccc(C(=O)O)cc6n5C[C@@H]5CCO5)cc4F)n3)s2)CC1 [Example 321, (S)-2-(2,5-difluoro-4-(6-((5-((1-methylcyclopropyl)ethynyl)-1,3,4-thiadiazol-2-yl)methoxy)pyridin-2-yl)benzyl)-1-(oxetan-2-ylmethyl)-1H-benzo[d]imidazole-6-carboxylic acid] | 0.246 |
| O=C(O)c1ccc2nc(Cc3cc(F)c(-c4cccc(OCc5ncc(C#CC6CCOC6)s5)n4)cc3F)n(C[C@@H]3CCO3)c2c1 (stereo partly drawn) [Example 322, 2-(2,5-difluoro-4-(6-((5-((tetrahydrofuran-3-yl)ethynyl)thiazol-2-yl)methoxy)pyridin-2-yl)benzyl)-1-(((S)-oxetan-2-yl)methyl)-1H-benzo[d]imidazole-6-carboxylic acid] | 0.349 |
| O=C(O)c1ccc2nc(Cc3cc(F)c(-c4cccc(OCc5ncc(C#CC6(O)CCC6)s5)n4)cc3F)n(C[C@@H]3CCO3)c2c1 [Example 323, (S)-2-(2,5-difluoro-4-(6-((5-((1-hydroxycyclobutyl)ethynyl)thiazol-2-yl)methoxy)pyridin-2-yl)benzyl)-1-(oxetan-2-ylmethyl)-1H-benzo[d]imidazole-6-carboxylic acid] | 0.281 |
| O=C(O)c1cc(F)c2nc(Cc3cc(F)c(-c4cccc(OCc5ncc(C(F)F)s5)n4)cc3F)n(C[C@@H]3CCO3)c2c1 [Example 324, (S)-2-(4-(6-((5-(difluoromethyl)thiazol-2-yl)methoxy)pyridin-2-yl)-2,5-difluorobenzyl)-4-fluoro-1-(oxetan-2-ylmethyl)-1H-benzo[d]imidazole-6-carboxylic acid] | 0.123 |
| N#Cc1ccc(C#Cc2cnc(COc3cccc(-c4cc(F)c(Cc5nc6ccc(C(=O)O)cc6n5C[C@@H]5CCO5)cc4F)n3)s2)cc1 [Example 325, (S)-2-(4-(6-((5-((4-cyanophenyl)ethynyl)thiazol-2-yl)methoxy)pyridin-2-yl)-2,5-difluorobenzyl)-1-(oxetan-2-ylmethyl)-1H-benzo[d]imidazole-6-carboxylic acid] | 0.582 |
| O=C(O)c1ccc2nc(Cc3cc(F)c(-c4cccc(OCc5ncc(C#CC6(C(F)F)CC6)s5)n4)cc3F)n(C[C@@H]3CCO3)c2c1 [Example 326, (S)-2-(4-(6-((5-((1-(difluoromethyl)cyclopropyl)ethynyl)thiazol-2-yl)methoxy)pyridin-2-yl)-2,5-difluorobenzyl)-1-(oxetan-2-ylmethyl)-1H-benzo[d]imidazole-6-carboxylic acid] | 0.451 |
| Cc1cnc(COc2cccc(-c3cc(F)c(Cc4nc5ccc(C(=O)O)cc5n4C[C@@H]4CCO4)cc3F)n2)s1 [Example 327, (S)-2-(2,5-difluoro-4-(6-((5-methylthiazol-2-yl)methoxy)pyridin-2-yl)benzyl)-1-(oxetan-2-ylmethyl)-1H-benzo[d]imidazole-6-carboxylic acid] | 0.381 |
| CC(C)(C#N)C#Cc1cnc(COc2cccc(-c3cc(F)c(Cc4nc5ccc(C(=O)O)cc5n4C[C@@H]4CCO4)cc3F)n2)s1 [Example 328, (S)-2-(4-(6-((5-(3-cyano-3-methylbut-1-yn-1-yl)thiazol-2-yl)methoxy)pyridin-2-yl)-2,5-difluorobenzyl)-1-(oxetan-2-ylmethyl)-1H-benzo[d]imidazole-6-carboxylic acid] | 0.342 |
| CC1(C#Cc2cnc(COc3cccc(-c4cc(F)c(Cc5nc6ccc(C(=O)O)cc6n5C[C@@H]5CCO5)cc4F)n3)s2)CC1 [Example 329, (S)-2-(2,5-difluoro-4-(6-((5-((1-methylcyclopropyl)ethynyl)thiazol-2-yl)methoxy)pyridin-2-yl)benzyl)-1-(oxetan-2-ylmethyl)-1H-benzo[d]imidazole-6-carboxylic acid] | 0.226 |
| O=C(O)c1ccc2nc(Cc3cc(F)c(-c4cccc(OCc5nnc(C#CC6CC(F)(F)C6)s5)n4)cc3F)n(C[C@@H]3CCO3)c2c1 [Example 330, (S)-2-(4-(6-((5-((3,3-difluorocyclobutyl)ethynyl)-1,3,4-thiadiazol-2-yl)methoxy)pyridin-2-yl)-2,5-difluorobenzyl)-1-(oxetan-2-ylmethyl)-1H-benzo[d]imidazole-6-carboxylic acid] | 0.431 |
| Cc1cc(Cc2nc3ccc(C(=O)O)cc3n2C[C@@H]2CCO2)c(F)cc1-c1cccc(OCc2ncc(-c3cnn(C(F)F)c3)s2)n1 [Example 331, (S)-2-(4-(6-((5-(1-(difluoromethyl)-1H-pyrazol-4-yl)thiazol-2-yl)methoxy)pyridin-2-yl)-2-fluoro-5-methylbenzyl)-1-(oxetan-2-ylmethyl)-1H-benzo[d]imidazole-6-carboxylic acid] | 0.58 |
